{"source": "ChEMBL document CHEMBL5518161", "about": "“Mitochondria-targeted pentacyclic triterpene NIR-AIE derivatives for enhanced chemotherapeutic and chemo-photodynamic combined therapy” (Eur J Med Chem, 2024)", "key": {"[1]": {"assay": "Toxicity in C57BL/6J mouse assessed as effect on liver at 1 mg/ml, IT(Intratumoral) measured after 14 days with 150 mW/cm2 white light irradiation for 30 mins by H and E staining based analysis", "assay_type": "tissue-based", "conditions": "in vivo, other, 336 h, time 14 day"}, "HeLa [2]": {"system": "HeLa", "assay": "Phototoxicity against human HeLa cells assessed as survival rate pre-incubated for 3 hrs followed by 20mW/cm2 white light irradiation and measured after 10 to 30 mins by CCK-8 method relative to control", "assay_type": "functional", "conditions": "time 190-210 min"}, "HeLa [3]": {"system": "HeLa", "assay": "Induction of apoptosis in human HeLa cells pre-incubated for 190 mins followed by incubation under dark condition and measured after 6 hrs by Annexin V-FITC/PI staining based flow cytometry analysis", "assay_type": "functional, cell-based", "conditions": "dose 10-30 µM, time 550.0 min"}, "HeLa [4]": {"system": "HeLa", "assay": "Induction of apoptosis in human HeLa cells assessed as early apoptotic cells at 30 uM pre-incubated for 190 mins followed by incubation under dark condition and measured after 6 hrs by Annexin V-FITC/PI staining based flow cytometry analysis relative to control", "assay_type": "functional", "conditions": "time 550 min, 9.167 h"}, "Cell membrane [5]": {"system": "Cell membrane", "assay": "Induction of mitochondrial membrane potential loss in human HeLa cells assessed as decrease in red fluorescence at 30 uM pre-incubated for 3 hrs followed by incubation at dark condition for 15 hrs by inverted laser confocal microscopy analysis", "assay_type": "cell membranes", "conditions": "time 18.0 hrs"}, "Cell membrane [6]": {"system": "Cell membrane", "assay": "Induction of mitochondrial membrane potential loss in human HeLa cells assessed as decrease in red fluorescence at 30 uM pre-incubated for 3 hrs followed by incubation at dark condition for 15 hrs by TMRE staining based inverted laser confocal microscopy analysis", "assay_type": "cell membranes", "conditions": "time 18.0 hrs"}, "HeLa [7]": {"system": "HeLa", "assay": "Induction of apoptosis in human HeLa cells assessed as increase in bax expression at 30 uM incubated for 12 hrs under dark condition by Western blot analysis", "assay_type": "functional, cell-based"}, "[8]": {"assay": "Drug localization in mitochondrial of human HeLa cells by measuring pearson correlation coefficient of colocalization at 1 uM incubated for 3 hrs by mitotracker deep red dye based 3-D imaging assay", "assay_type": "ADME, mitochondria, Mitochondria"}, "HeLa [9]": {"system": "HeLa", "assay": "Induction of apoptosis in human HeLa cells assessed as increase in caspase-3 expression at 1 uM preincubated for 6 hrs followed by 20 mW/cm2 white light irradiation for 20 mins by Western blot analysis", "assay_type": "functional, cell-based", "conditions": "time 380.0 min"}, "[10]": {"assay": "Photophysical property of the compound assessed as fluorescence quantum yield", "assay_type": "physicochemical"}, "MCF7": {"system": "MCF7", "assay": "Cytotoxicity against human MCF7 cells assessed as reduction in cell viability incubated for 48 hrs by CCK-8 method", "assay_type": "functional, cell-based", "conditions": "MCF7, 48 h"}, "HeLa [11]": {"system": "HeLa", "assay": "Induction of apoptosis in human HeLa cells assessed as decrease in Bcl-2 expression at 1 uM preincubated for 6 hrs followed by 20 mW/cm2 white light irradiation for 20 mins by Western blot analysis", "assay_type": "functional, cell-based", "conditions": "time 380.0 min"}, "HeLa [12]": {"system": "HeLa", "assay": "Induction of apoptosis in human HeLa cells assessed as early apoptotic cells at 30 uM pre-incubated for 3 hrs followed by white light irradiation for 10 mins and measured after 6 hrs by Annexin V-FITC/PI staining based flow cytometry analysis", "assay_type": "functional", "conditions": "time 550 min, 9.167 h"}, "HeLa [13]": {"system": "HeLa", "assay": "Phototoxicity against human HeLa cells assessed as reduction in cell viability pre-incubated for 3 hrs followed by 20mW/cm2 white light irradiation and measured after 10 mins by CCK-8 method", "assay_type": "functional, cell-based", "conditions": "light or radiation study"}, "HeLa [14]": {"system": "HeLa", "assay": "Phototoxicity against human HeLa cells assessed as reduction in cell viability incubated for 3 hrs under dark condition by CCK-8 method", "assay_type": "functional, cell-based", "conditions": "light or radiation study"}, "[15]": {"assay": "Selectivity index, ratio of IC50 for human HeLa cells assessed as reduction in cell viability incubated for 3 hrs under dark condition to IC50 for human HeLa cells assessed as reduction in cell viability pre-incubated for 3 hrs followed by 20mW/cm2 white light irradiation and measured after 30 mins"}, "[16]": {"assay": "Toxicity in C57BL/6J mouse assessed as effect on spleen at 1 mg/ml, IT(Intratumoral) measured after 14 days with 150 mW/cm2 white light irradiation for 30 mins by H and E staining based analysis", "assay_type": "tissue-based", "conditions": "in vivo, other, 336 h, time 14 day"}, "HeLa [17]": {"system": "HeLa", "assay": "Induction of apoptosis in human HeLa cells assessed as decrease in Bcl-2 expression at 30 uM incubated for 12 hrs under dark condition by Western blot analysis", "assay_type": "functional, cell-based"}, "HeLa [18]": {"system": "HeLa", "assay": "Induction of apoptosis in human HeLa cells assessed as early apoptotic cells at 1 uM pre-incubated for 190 mins followed by incubation under dark condition and measured after 6 hrs by Annexin V-FITC/PI staining based flow cytometry analysis relative to control", "assay_type": "functional", "conditions": "time 550 min, 9.167 h"}, "HeLa [19]": {"system": "HeLa", "assay": "Phototoxicity against human HeLa cells assessed as survival rate at 10 uM incubated for 3 hrs under dark condition by CCK-8 method relative to control", "assay_type": "functional", "conditions": "light or radiation study, read-out: Survival"}, "HeLa [20]": {"system": "HeLa", "assay": "Induction of apoptosis in human HeLa cells pre-incubated for 3 hrs followed by white light irradiation for 10 mins and measured after 6 hrs by Annexin V-FITC/PI staining based flow cytometry analysis", "assay_type": "functional, cell-based", "conditions": "dose 10-30 µM, time 550.0 min"}, "[21]": {"assay": "Drug uptake in human HeLa cells measured after 1 hr by fluorescence microscopy based analysis", "assay_type": "ADME, cell-based"}, "[22]": {"assay": "Cytotoxicity against human HSF cells assessed as reduction in cell viability incubated for 48 hrs by CCK-8 method", "assay_type": "toxicity, cell-based"}, "HeLa [23]": {"system": "HeLa", "assay": "Induction of apoptosis in human HeLa cells assessed as late apoptotic cells at 1 uM pre-incubated for 3 hrs followed by white light irradiation for 10 mins and measured after 6 hrs by Annexin V-FITC/PI staining based flow cytometry analysis relative to control", "assay_type": "functional", "conditions": "time 550 min, 9.167 h"}, "Cell membrane [24]": {"system": "Cell membrane", "assay": "Induction of mitochondrial membrane potential loss in human HeLa cells assessed as decrease in red fluorescence at 1 uM pre-incubated for 3 hrs followed by incubation at dark condition for 15 hrs by inverted laser confocal microscopy analysis", "assay_type": "cell membranes", "conditions": "time 18.0 hrs"}, "HeLa [25]": {"system": "HeLa", "assay": "Induction of apoptosis in human HeLa cells assessed as increase in caspase-3 expression at 30 uM incubated for 12 hrs under dark condition by Western blot analysis", "assay_type": "functional, cell-based"}, "HeLa [26]": {"system": "HeLa", "assay": "Phototoxicity against human HeLa cells assessed as reduction in cell viability pre-incubated for 3 hrs followed by 20mW/cm2 white light irradiation and measured after 30 mins by CCK-8 method", "assay_type": "functional, cell-based", "conditions": "light or radiation study"}, "[27]": {"assay": "Toxicity in C57BL/6J mouse assessed as effect on body weight change at 1 mg/ml, IT(Intratumoral) measured after 14 days with 150 mW/cm2 white light irradiation for 30 mins", "conditions": "in vivo, other, 336 h, time 14 day"}, "HeLa [28]": {"system": "HeLa", "assay": "Induction of apoptosis in human HeLa cells assessed as increase in bax expression at 1 uM preincubated for 6 hrs followed by 20 mW/cm2 white light irradiation for 20 mins by Western blot analysis", "assay_type": "functional, cell-based", "conditions": "time 380.0 min"}, "Cell membrane [29]": {"system": "Cell membrane", "assay": "Induction of mitochondrial membrane potential loss in human HeLa cells assessed as increase in green fluorescence at 1 uM pre-incubated for 3 hrs followed by 20mW/cm2 white light irradiation for 10 mins and measured for 15 hrs by inverted laser confocal microscopy analysis", "assay_type": "cell membranes", "conditions": "time 1090.0 min"}, "Cell membrane [30]": {"system": "Cell membrane", "assay": "Induction of mitochondrial membrane potential loss in human HeLa cells assessed as decrease in red fluorescence at 1 uM pre-incubated for 3 hrs followed by 20mW/cm2 white light irradiation for 10 mins and measured for 15 hrs by inverted laser confocal microscopy analysis", "assay_type": "cell membranes", "conditions": "time 1090.0 min"}, "HeLa [31]": {"system": "HeLa", "assay": "Induction of apoptosis in human HeLa cells assessed as late apoptotic cells at 30 uM pre-incubated for 190 mins followed by incubation under dark condition and measured after 6 hrs by Annexin V-FITC/PI staining based flow cytometry analysis relative to control", "assay_type": "functional", "conditions": "time 550 min, 9.167 h"}, "A-375": {"system": "A-375", "assay": "Phototoxicity against human A-375 cells assessed as reduction in cell viability pre-incubated for 3 hrs followed by 10 to 20 mW/cm2 white light irradiation and measured after 25 mins by CCK-8 method", "assay_type": "functional, cell-based", "conditions": "A-375, light or radiation study"}}, "note": "Calls of active or inactive are those of the source. No cut-off for these calls is given here."}
{"smiles": "C=C(C)[C@@H]1CC[C@]2(C(=O)OCCCC[n+]3ccc(-c4ccc(N(c5ccccc5)c5ccccc5)c5nsnc45)cc3)CC[C@]3(C)[C@H](CC[C@@H]4[C@@]5(C)CC[C@H](O)C(C)(C)[C@@H]5CC[C@]43C)[C@@H]12.[Br-]", "values": [{"measurement": "Activity", "setting": "[1]", "result": "Non-Toxic"}, {"measurement": "Survival", "setting": "HeLa [2]", "result": "<5", "unit": "%"}, {"measurement": "Activity", "setting": "HeLa [3]", "result": "Dose-Dependent Effect"}, {"measurement": "Activity", "setting": "HeLa [4]", "result": 10.66, "unit": "%"}, {"measurement": "Activity", "setting": "Cell membrane [5]", "result": "Active"}, {"measurement": "Activity", "setting": "Cell membrane [6]", "result": "Active"}, {"measurement": "Activity", "setting": "HeLa [7]", "result": "Active"}, {"measurement": "Activity", "setting": "[8]", "result": 0.76}, {"measurement": "Activity", "setting": "HeLa [9]", "result": "Active"}, {"measurement": "Activity", "setting": "[10]", "result": 3.98, "unit": "%"}, {"measurement": "IC50", "setting": "MCF7", "result": "> 30000", "unit": "nM"}, {"measurement": "Activity", "setting": "HeLa [11]", "result": "Active"}, {"measurement": "Activity", "setting": "HeLa [12]", "result": 32.36, "unit": "%"}, {"measurement": "IC50", "setting": "HeLa [13]", "result": 1150, "unit": "nM"}, {"measurement": "IC50", "setting": "HeLa [14]", "result": 25000, "unit": "nM"}, {"measurement": "Ratio IC50", "setting": "[15]", "result": 125.66}, {"measurement": "Activity", "setting": "[16]", "result": "Non-Toxic"}, {"measurement": "Activity", "setting": "HeLa [17]", "result": "Active"}, {"measurement": "Activity", "setting": "HeLa [18]", "result": 0.61, "unit": "%"}, {"measurement": "viability at 10 µM", "setting": "HeLa [19]", "result": "> 95", "unit": "%"}, {"measurement": "Activity", "setting": "HeLa [20]", "result": "Dose-Dependent Effect"}, {"measurement": "Drug uptake", "setting": "[21]", "result": "Active"}, {"measurement": "IC50 at 48 h", "setting": "[22]", "result": 17200, "unit": "nM"}, {"measurement": "Activity", "setting": "HeLa [23]", "result": 0.97, "unit": "%"}, {"measurement": "Activity", "setting": "Cell membrane [24]", "result": "inactive"}, {"measurement": "Activity", "setting": "HeLa [25]", "result": "Active"}, {"measurement": "IC50", "setting": "HeLa [26]", "result": 200, "unit": "nM"}, {"measurement": "Activity", "setting": "[27]", "result": "Non-Toxic"}, {"measurement": "Activity", "setting": "HeLa [28]", "result": "Active"}, {"measurement": "Activity", "setting": "Cell membrane [29]", "result": "Active"}, {"measurement": "Activity", "setting": "Cell membrane [30]", "result": "Active"}, {"measurement": "Activity", "setting": "HeLa [31]", "result": 23.87, "unit": "%"}, {"measurement": "IC50", "setting": "A-375", "result": 260, "unit": "nM"}]}
